Patent US4073941A, “Aralkyl amides having antidepressive activity” (priority 1975, dated 1978)
≈ marks a conversion by molar mass, not a printed value. Structures can show the parent of a compound that is named as a salt. Where two headings read alike, the source gives them in different places.

Tests used:
[1] = system: uptake of 14C-5-HT (5-hydroxytryptamine) in brain slices; test: Inhibition of the uptake of 14C-5-HT in mouse midbrain slices, compound added in vitro; type: cell-based, mice; conditions: 5 min, concentration producing 50 percent decrease of active uptake (ED50), 5-HT 1×10^-7 M, 5 min incubation
Experimental: (§1) 1. Inhibition of the uptake of carbon-14 5-HT and tritiated noradrenaline in vitro and in vivo
(§2) The method is described by Ross, Renyi and Ogren in European Journal of Pharmacology 17 (1972), 107-112. Tricyclic antidepressant drugs of type imipramine added in vitro or given in vivo to mice decrease the uptake of ^14 C-5-HT and ^3 H-NA in vitro. In the in vitro experiments different concentrations of the test compound were added to the incubation medium. In the in vivo experiments different doses of the test drug were administered intraperitoneally half an hour before the animals were killed. The incubation performance was the same in the two types of experiments, i.e. the midbrain was taken out and sliced and incubated in a mixture consisting of, per 100 mg of brain slices, 0.2 n-mole of ^14 C-5-HT, 0.2 n-mole of ^3 H-NA and 11 μmole of glucose in 2 ml of Krebs-Henseleit buffer, pH 7.4. The incubation time was 5 minutes. The radioactive amines taken up in the slices were dissolved in Soluene-350® (Packard) and the amounts were determined with the double labelling technique by liquid scintillation. The concentration or dose producing 50 percent decrease of the active uptake (ED50) was determined graphically from dose-response curves. Active uptake is defined as that part of the radioactive uptake which is inhibited by a high concentration of cocaine. […]

[2] = system: uptake of 3H-NA (noradrenaline) in brain slices; test: Inhibition of the uptake of 3H-noradrenaline in mouse midbrain slices, compound added in vitro; type: cell-based, mice; conditions: 5 min, read-out: Inhibition (50 %) of uptake in vitro NA
Experimental: as §1, §2

[3] = system: uptake of 14C-5-HT (5-hydroxytryptamine) in brain slices; test: Inhibition of the uptake of 14C-5-HT in midbrain slices after in vivo i.p. administration to mice; conditions: Mus musculus, ip, 0.5 h; dose producing 50 percent decrease of active uptake (ED50); i.p. half an hour before killing; 5-HT 1×10^-7 M
Experimental: as §1
(§3) The method is described by Ross, Renyi and Ogren in European Journal of Pharmacology 17 (1972), 107-112. […] In the in vitro experiments different concentrations of the test compound were added to the incubation medium. In the in vivo experiments different doses of the test drug were administered intraperitoneally half an hour before the animals were killed. The incubation performance was the same in the two types of experiments, i.e. the midbrain was taken out and sliced and incubated in a mixture consisting of, per 100 mg of brain slices, 0.2 n-mole of ^14 C-5-HT, 0.2 n-mole of ^3 H-NA and 11 μmole of glucose in 2 ml of Krebs-Henseleit buffer, pH 7.4. The incubation time was 5 minutes. The radioactive amines taken up in the slices were dissolved in Soluene-350® (Packard) and the amounts were determined with the double labelling technique by liquid scintillation. The concentration or dose producing 50 percent decrease of the active uptake (ED50) was determined graphically from dose-response curves. Active uptake is defined as that part of the radioactive uptake which is inhibited by a high concentration of cocaine. All doses were given at least to four animals.

[4] = system: uptake of 3H-NA (noradrenaline) in brain slices; test: Inhibition of the uptake of 3H-noradrenaline in midbrain slices after in vivo i.p. administration to mice; conditions: Mus musculus, ip, 0.5 h; dose producing 50 percent decrease of active uptake (ED50); i.p. half an hour before killing; 1-noradrenaline 1×10^-7 M
Experimental: as §1, §3

[5] = system: 5-HTP induced behavioural syndrome in mice; test: 5-HTP response potentiation test; type: in vivo; conditions: Mus musculus, least dose producing maximal score (+3) in all animals, before dl-5-HTP 90 mg/kg i.v.
Experimental: 1. 5-HTP response potentiation test
Inhibition of the uptake of 5-HT potentiates the effects of administered 5-hydroxytryptophan (5-HTP) probably by increasing the amount of 5-HT at the receptor. Three mice are given the test drugs 1 hour (or 4, 24 hours) before d1-5-HTP 90 mg/kg i.v. 5-HTP alone gives only a weak behavioural syndrome but in pretreated mice there is seen a characteristic behavioural syndrome, which comes within 5 minutes: tremor, lordosis, abduction of the hindlegs, head-twiches. The strength of the syndrome is scored from 0 to +3. Each group consists of 3 animals and at least 4 groups were tested at 25 mg/kg i.p. Control groups receiving imipramine (Tofranil®) are used as reference, since imipramine constantly potentiated d1-5-HTP. The least dose of the test compound producing maximal score (+3) in all animals is estimated from a logarithmic dose-response curve, and is denoted "effective dose" in the following Table.

`CN(C)CCCN1c2ccccc2CCc2ccccc21` [Imipramine, imipramine] was tested, and the IC50 [1] was 0.1 µg/mL (≈ 0.357 µM), the IC50 ([2]; concentration producing 50 percent decrease of active uptake (ED50), 1-noradrenaline 1×10^-7 M, mouse midbrain slices, 5 min incubation) was 0.06 µg/mL (≈ 0.214 µM) and the ED50 [3] was 24 mg/kg. It also gave an ED50 [4] of 6 mg/kg and a minimal effective dose [5] of 15 mg/kg.

In the case of `CC(N)C(=O)NC(C)(C)Cc1ccc(Cl)cc1` (stereo not shown) [GEA 609, 2-amino-N^1 - 3-(4-chlorophenyl)-2-methyl-2-propyl! propanoic acid amide hydrochloride], the IC50 [1] is reported as 0.7 µg/mL, the IC50 ([2]; Mus musculus) is reported as greater than 10 µg/mL and the ED50 [3] is reported as 20 mg/kg. For the same molecule, the ED50 [4] was greater than 40 mg/kg and the minimal effective dose [5] was 0.5 mg/kg.
